Assay results reported in ChEMBL document CHEMBL1201862, “PubChem BioAssay data set” (2004).
Activity calls are given as the source filed them.

How the values were obtained:
[1] = cytotoxicity toward NIH3T3 fibroblasts, dose response, counter-screen, cell-based, ATP luminescence, mouse fibroblasts (AID 2010); type: functional;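 also: cells exposed to compound for about 90 hours before reading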
[2] = system: Streptococcus sp. 'group A'; assay: growth inhibition of control SK(-) GAS strain, dose response, counter-screen for streptokinase expression inhibitor project, luminescence, kanamycin, BacTiterGlo, confirmation (AID 1900); type: functional, organism-based
[3] = target: T1, Streptokinase A (Streptococcus pyogenes serotype M1, UniProt P10520); assay: S. pyogenes streptokinase expression inhibitors, potency, dose response, plasminogen activation absorbance, OD405 (AID 1914); type: functional, Streptococcus pyogenes M1 GAS;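 also: secreted streptokinase activity via plasminogen activation per viability signal from cell pellet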
T1 sequence (P10520 whole entry): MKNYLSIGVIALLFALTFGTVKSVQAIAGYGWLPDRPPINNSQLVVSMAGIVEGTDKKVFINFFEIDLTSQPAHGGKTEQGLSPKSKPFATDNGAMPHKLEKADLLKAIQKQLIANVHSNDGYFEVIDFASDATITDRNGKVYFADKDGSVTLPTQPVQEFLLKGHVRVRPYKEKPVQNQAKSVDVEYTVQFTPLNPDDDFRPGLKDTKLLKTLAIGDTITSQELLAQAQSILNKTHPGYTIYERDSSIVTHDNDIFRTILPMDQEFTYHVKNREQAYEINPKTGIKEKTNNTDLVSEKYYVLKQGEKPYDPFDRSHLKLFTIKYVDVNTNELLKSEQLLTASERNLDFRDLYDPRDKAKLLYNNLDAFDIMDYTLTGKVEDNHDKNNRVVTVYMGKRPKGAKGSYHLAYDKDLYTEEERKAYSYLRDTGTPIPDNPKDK

[4] = Shn3 3'UTR reporter inhibitors, dose response, cell-based, Clone20 osteoblasts, firefly luciferase, cherry-picked (AID 624132); type: functional;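 also: firefly luciferase luminescence from reporter carrying the Shn3 3'UTR in osteoblasts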
[5] = HepG2 cell cytotoxicity, dose response, cytotoxicity control for Shn3 inhibitor project, CellTiter-Glo, cherry-picked (AID 624134); type: functional, cell-based
[6] = system: Streptococcus; assay: Group A Streptococcus viability loss, dose response, counter-screen for streptokinase expression inhibitor project, luminescence, BacTiterGlo (AID 1915); type: functional, organism-based;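 also: potency for reduction of bacterial viability or growth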
[7] = control 3'UTR Renilla luciferase suppression, dose response, counter-screen for Shn3 inhibitor project, cell-based, Clone20-Shn3RL, cherry-picked (AID 624133); type: functional
[8] = inhibitors of intracellular T. cruzi replication, confirmation, NIH3T3 host cells, beta-gal luminescence (AID 2044); type: functional, cell-based;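 also: intracellular parasites grown in NIH/3T3 mouse fibroblasts as host cells; luminescent beta-galactosidase reporter signal from transgenic T. cruzi replicating inside host cells; inhibitors lower the luminescence signal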
[9] = target: T2, Short transient receptor potential channel 4 (Mus musculus, UniProt Q9QUQ5); assay: mouse TRPC4 channel inhibitors, dose response, cell-based, HEK293 TRPC4/mu-opioid, Fluo-4 calcium (AID 434942); type: functional;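 also: potency of inhibitors blocking the TRPC4 calcium response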
T2 sequence (Q9QUQ5 whole entry): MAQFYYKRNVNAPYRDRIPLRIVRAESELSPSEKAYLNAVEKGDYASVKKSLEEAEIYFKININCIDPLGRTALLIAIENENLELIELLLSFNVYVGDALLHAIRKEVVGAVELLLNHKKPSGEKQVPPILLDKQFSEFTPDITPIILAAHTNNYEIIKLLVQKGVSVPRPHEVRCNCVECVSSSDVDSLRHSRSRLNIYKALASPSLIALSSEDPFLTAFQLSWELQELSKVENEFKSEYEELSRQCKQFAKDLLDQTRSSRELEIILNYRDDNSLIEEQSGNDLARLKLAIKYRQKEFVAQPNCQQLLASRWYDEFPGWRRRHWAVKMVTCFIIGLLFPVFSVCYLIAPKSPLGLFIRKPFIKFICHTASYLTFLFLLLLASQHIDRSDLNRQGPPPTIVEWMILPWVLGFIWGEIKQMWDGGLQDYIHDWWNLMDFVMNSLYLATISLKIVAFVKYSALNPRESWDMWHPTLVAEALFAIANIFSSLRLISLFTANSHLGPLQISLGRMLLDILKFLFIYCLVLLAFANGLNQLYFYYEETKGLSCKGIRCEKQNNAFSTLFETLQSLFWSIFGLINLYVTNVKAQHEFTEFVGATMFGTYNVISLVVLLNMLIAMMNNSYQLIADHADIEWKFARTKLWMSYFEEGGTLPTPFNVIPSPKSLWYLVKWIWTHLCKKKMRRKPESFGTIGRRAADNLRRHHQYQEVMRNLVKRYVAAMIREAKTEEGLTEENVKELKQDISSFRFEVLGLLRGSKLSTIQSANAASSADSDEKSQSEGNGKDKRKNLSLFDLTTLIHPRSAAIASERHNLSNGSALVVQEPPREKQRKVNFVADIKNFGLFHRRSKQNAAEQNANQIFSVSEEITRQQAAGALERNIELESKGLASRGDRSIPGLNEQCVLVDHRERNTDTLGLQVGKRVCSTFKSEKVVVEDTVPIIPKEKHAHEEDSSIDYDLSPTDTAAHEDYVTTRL

[10] = target: Nonstructural protein 1 (Influenza A virus, UniProt Q194T2); type: functional, Influenza A virus (A/California/07/2009(H1N1))
[11] = target: Eukaryotic translation initiation factor 4E (Mus musculus, UniProt P63073); assay: eIF4E–eIF4G protein interaction inhibitors, dose response, biochemical, TR-FRET (AID 855); type: functional;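 also: potency for disrupting eIF4E binding to eIF4GI seen as loss of FRET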
[12] = CRF-BP/CRF-R2 complex antagonists, dose response, cell-based, uHTS hits, 384-well (AID 651639); type: functional, Homo sapiens; conditions: read-out: IC50_Mean
[13] = target: T3, Corticotropin-releasing factor receptor 2/Corticotropin-releasing factor-binding protein (Homo sapiens, UniProt P24387+Q13324); assay: activators of CRF receptor 2 with binding protein – uHTS hits, confirmation (AID 602473); type: functional; conditions: read-out: EC50_Mean
T3 sequence (Q13324 whole entry): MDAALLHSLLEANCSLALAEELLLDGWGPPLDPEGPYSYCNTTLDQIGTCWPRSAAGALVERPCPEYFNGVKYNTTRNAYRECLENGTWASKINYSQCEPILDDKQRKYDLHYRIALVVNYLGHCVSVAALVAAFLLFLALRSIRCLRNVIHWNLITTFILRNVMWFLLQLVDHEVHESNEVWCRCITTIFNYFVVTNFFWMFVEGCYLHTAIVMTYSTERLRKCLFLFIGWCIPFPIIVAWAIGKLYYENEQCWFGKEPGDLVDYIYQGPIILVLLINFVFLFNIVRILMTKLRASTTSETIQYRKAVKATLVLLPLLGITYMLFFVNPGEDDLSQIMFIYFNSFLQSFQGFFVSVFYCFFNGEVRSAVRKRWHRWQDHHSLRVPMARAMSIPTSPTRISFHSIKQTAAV
T3 sequence (P24387 whole entry): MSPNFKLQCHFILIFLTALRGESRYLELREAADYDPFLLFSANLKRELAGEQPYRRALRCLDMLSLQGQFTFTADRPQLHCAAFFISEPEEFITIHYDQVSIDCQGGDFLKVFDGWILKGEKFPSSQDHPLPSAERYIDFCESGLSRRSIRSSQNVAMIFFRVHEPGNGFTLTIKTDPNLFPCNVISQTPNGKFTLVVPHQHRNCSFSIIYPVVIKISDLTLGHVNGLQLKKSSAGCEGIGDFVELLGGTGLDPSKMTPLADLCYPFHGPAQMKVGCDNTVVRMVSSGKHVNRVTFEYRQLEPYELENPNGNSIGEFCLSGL

[14] = target: Cytochrome P450 3A4 (Homo sapiens, UniProt P08684);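 also: CYP3A4 tested as one member of a cytochrome P450 panel screen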
[15] = target: T3, Corticotropin-releasing factor receptor 2/Corticotropin-releasing factor-binding protein; assay: Dose Response confirmation of uHTS hits for small molecule antagonists of the CRF-binding protein and CRF-R2 receptor complex.; type: functional; conditions: read-out: IC50_Mean
[16] = target: T4, Protein skinhead-1 (Caenorhabditis elegans, UniProt P34707); type: functional
T4 sequence (P34707 whole entry): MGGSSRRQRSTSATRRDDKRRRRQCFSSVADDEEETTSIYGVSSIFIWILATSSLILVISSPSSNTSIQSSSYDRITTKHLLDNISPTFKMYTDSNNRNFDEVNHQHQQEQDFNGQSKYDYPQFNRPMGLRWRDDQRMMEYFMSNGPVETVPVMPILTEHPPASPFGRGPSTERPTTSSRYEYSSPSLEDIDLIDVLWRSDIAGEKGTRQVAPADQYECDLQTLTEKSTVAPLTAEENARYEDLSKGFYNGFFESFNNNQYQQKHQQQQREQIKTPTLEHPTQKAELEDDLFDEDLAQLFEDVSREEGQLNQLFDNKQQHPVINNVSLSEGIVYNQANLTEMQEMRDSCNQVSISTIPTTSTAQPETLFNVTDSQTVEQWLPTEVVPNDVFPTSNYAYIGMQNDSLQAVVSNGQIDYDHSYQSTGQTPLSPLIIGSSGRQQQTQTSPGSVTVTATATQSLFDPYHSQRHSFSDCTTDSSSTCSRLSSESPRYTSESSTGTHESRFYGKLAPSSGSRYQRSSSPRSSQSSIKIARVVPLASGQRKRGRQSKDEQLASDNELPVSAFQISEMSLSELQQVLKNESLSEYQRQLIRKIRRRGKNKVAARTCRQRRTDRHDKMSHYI

[17] = A Cell Based Secondary Assay To Explore Cytotoxicity of Compounds that Sensitize Mycobacterium Tuberculosis to Beta-Lactam Antibiotics.; type: functional
[18] = Luminescence Cell-Based Dose Retest to Confirm Inhibitors of Cancer Stem Cells. [Related pubchem assays (depositor defined):AID2717, AID2721]; type: functional; conditions: Homo sapiens
[19] = target: T5, Calpain-2 catalytic subunit (Sus scrofa, UniProt P43367); assay: pig calpain II inhibitor potency, dose response, biochemical, fluorogenic peptide substrate (AID 1420); type: functional
T5 sequence (P43367 whole entry): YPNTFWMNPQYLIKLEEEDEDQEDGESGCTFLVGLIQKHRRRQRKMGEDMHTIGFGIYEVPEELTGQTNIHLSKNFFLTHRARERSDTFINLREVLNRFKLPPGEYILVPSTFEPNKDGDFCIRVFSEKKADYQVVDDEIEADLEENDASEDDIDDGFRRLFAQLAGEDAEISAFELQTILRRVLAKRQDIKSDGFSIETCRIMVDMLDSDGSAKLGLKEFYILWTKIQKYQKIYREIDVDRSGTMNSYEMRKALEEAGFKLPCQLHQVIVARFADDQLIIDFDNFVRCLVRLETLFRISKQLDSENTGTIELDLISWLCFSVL

[20] = cells; type: functional, cell-based
[21] = target: T6, Heat shock factor protein 1 (Mus musculus, UniProt P38532); assay: inhibition of MG132-induced HSE-luciferase signal, confirmation, cell-based, NIH3T3, luminescence, dose retest (AID 2382); type: functional;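 also: NIH3T3 fibroblasts with HSF1-driven luciferase reporter stressed by proteasome inhibitor MG132; luminescence from HSF1-driven luciferase expression after 8 hours of MG132 stress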
T6 sequence (P38532 whole entry): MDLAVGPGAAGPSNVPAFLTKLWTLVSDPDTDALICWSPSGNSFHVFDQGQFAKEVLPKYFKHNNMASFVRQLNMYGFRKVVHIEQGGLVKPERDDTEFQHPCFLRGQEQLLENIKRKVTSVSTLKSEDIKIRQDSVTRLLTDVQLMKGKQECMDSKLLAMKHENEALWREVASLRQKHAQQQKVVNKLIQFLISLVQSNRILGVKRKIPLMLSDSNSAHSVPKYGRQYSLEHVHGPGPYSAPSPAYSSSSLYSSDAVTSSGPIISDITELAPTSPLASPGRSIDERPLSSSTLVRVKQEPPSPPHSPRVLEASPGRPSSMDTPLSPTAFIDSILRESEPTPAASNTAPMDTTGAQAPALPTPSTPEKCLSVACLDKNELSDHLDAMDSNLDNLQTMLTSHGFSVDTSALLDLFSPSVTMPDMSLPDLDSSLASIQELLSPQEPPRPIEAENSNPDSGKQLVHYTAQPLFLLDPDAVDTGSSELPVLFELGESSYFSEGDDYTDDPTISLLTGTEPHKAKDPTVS

Nonstructural protein 1, sequence (Q194T2 whole entry): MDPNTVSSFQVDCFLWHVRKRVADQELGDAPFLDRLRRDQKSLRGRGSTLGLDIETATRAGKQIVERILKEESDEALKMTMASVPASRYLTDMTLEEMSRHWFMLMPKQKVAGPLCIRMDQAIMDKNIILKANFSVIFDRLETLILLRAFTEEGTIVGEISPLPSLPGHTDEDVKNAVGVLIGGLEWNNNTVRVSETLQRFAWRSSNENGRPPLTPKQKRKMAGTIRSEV
Eukaryotic translation initiation factor 4E, sequence (P63073 whole entry): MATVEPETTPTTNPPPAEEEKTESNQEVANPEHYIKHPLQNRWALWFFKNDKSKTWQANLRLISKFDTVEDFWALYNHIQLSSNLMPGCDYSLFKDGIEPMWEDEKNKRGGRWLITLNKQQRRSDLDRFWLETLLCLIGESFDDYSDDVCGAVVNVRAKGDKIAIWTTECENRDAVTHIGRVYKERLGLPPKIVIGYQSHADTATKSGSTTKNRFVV
Cytochrome P450 3A4, sequence (P08684 whole entry): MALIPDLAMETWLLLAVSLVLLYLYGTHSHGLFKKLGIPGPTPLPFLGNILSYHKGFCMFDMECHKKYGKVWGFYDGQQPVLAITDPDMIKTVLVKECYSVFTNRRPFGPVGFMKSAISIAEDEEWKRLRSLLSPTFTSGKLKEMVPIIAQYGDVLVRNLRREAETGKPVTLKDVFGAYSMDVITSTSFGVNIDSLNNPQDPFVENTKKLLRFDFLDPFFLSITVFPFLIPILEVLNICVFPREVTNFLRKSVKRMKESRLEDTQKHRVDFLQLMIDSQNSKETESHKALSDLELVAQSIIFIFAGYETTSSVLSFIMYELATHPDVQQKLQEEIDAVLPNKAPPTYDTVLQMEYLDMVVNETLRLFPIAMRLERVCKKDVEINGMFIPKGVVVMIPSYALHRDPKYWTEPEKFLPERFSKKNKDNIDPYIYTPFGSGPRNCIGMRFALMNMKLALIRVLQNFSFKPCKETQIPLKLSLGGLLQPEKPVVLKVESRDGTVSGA

CCCn1c(NC(=O)c2ccc(Cl)c(S(=O)(=O)N3CCCC3)c2)nc2ccccc21
EC50 [1]: 6.63 µM (active) | EC50 [2]: 3.14 µM (active) | EC50 [3]: > 150 µM (not active) | AC50 [4]: 8.39 µM (active) | AC50 [5]: 38.8 µM (active) | EC50 [6]: 11.6 µM (active) | AC50 [7]: 10.9 µM (active) | EC50 [8]: 2.63 µM (active) | EC50 [9]: 1.06 µM (active)

O=C1NC(=S)N(C2CC2)C(=O)/C1=C/NNC(=O)c1ccccc1O
IC50 [10]: 16.2 µM (active)

COc1ccccc1NC(=S)NCCSc1ccc(Cl)cc1
IC50 [11]: > 64 µM (inactive)

COc1cc(C2C(C(=O)c3ccccc3)=C(O)C(=O)N2c2ccccn2)ccc1O (centres undefined)
IC50 [11]: 50 µM (inactive)

CCCN1CCN(C(=O)CCCNC(=O)Cn2cnc3sc(C)c(C)c3c2=O)CC1
IC50 [11]: > 64 µM (inactive)

CC(C)N(Cc1nc(-c2ccccc2)no1)C(=O)COc1ccccc1
IC50 [11]: > 64 µM (inactive)

Cc1cc([N+](=O)[O-])ccc1NCc1ccccc1
IC50 [12]: 8.31 µM (active) | EC50 [13]: > 53 µM (inactive) | AC50 [14]: 14.1 µM (inconclusive) | IC50 [15]: 4.41 µM (active) | IC50 [16]: 66.9 µM (inactive) | EC50 [9]: 0.841 µM (active)

CSc1ccc(-c2nnn(CC(=O)NCc3ccccc3)n2)cc1
CC50 [17]: > 40 µM (active)

COc1ccc(CN2CCCCC2C)cc1C (centres undefined)
IC50 [12]: 20 µM (active) | EC50 [13]: 2.45 µM (active) | IC50 [15]: < 0.368 µM (active)

CN1CCN(c2ccccc2NC(=O)c2ccc(-c3ccc(Cl)c(Cl)c3)o2)CC1
CC50 [17]: 25.2 µM (active) | AC50 [18]: 4.06 µM (active)

COc1cc(NC(=O)c2cc(-c3cccnc3)nc3ccc(Br)cc23)cc(OC)c1
CC50 [17]: > 40 µM (active)

Cc1cc(CN2CCCC(C(=O)Nc3ccc(-c4nc5ccccc5[nH]4)cc3)C2)n[nH]1 (centres undefined)
EC50 [9]: 0.0003 µM (active)

OC(COC(c1ccccc1)c1ccccc1)CN1CCN(c2cccc(Cl)c2)CC1 (centres undefined)
CC50 [17]: > 40 µM (active)

Cc1nn(-c2ccccc2)c2c1C(c1ccc(Br)s1)C(C#N)=C(N)O2 (centres undefined)
IC50 [10]: 76.2 µM (active) | IC50 [19]: > 50 µM (not active)

CCN(CC)CCN(C(=O)c1ccccc1OC)c1nc2ccc(F)cc2s1
EC50 [9]: 2.11 µM (active)

COc1ccc(C2=NN(C(=O)c3ccccc3)C(c3ccc(OC)c(OC)c3)C2)c(O)c1 (centres undefined)
EC50 [9]: 9.44 µM (active)

Cc1ccc(OCC(COCc2ccccc2)NC(C)C)cc1 (centres undefined)
EC50 [9]: 3.76 µM (active)

CN(C)C(CNC(=O)CCc1nc2ccccc2s1)c1ccccc1 (centres undefined)
EC50 [9]: 0.0187 µM (active)

CC(C)=CCC/C(C)=C/C=N/NC(=O)c1ccc([N+](=O)[O-])cc1
CC50 [17]: > 40 µM (active)

Cc1ccc(O)c(/C=N/NC(=O)CN2CCCC2)c1
EC50 [20]: 104 µM (active) | EC50 [21]: > 195 µM (not active) | IC50 [10]: 15.3 µM (active)
